Source: patent publication US20250064707A1, “PEPTIDE HAVING ANTI-AGING ACTIVITY, AND USE THEREOF” (CAREGEN CO., LTD., priority 2021, published 2025)

What was measured:
[1] = system: NIH3T3 cells (mouse fibroblast cell line); assay: RT-PCR expression of ECM component genes (Col1a1, fibronectin, elastin) in fibroblasts; assay type: cell-based; conditions: peptide 10, 50, 100 μM, 24 hours, RT-PCR vs GAPDH
Description: First, NIH3T3 cells (mouse fibroblast cell line) were seeded in a 6-well plate at a cell density of 5×10^5 cell/well, and then the cells were cultured in DMEM medium containing 10% fetal bovine serum (FBS) for 24 hours. The cultured cells were washed once with serum free DMEM medium, and the peptide of the present invention was mixed in 1 mL of the serum free DMEM medium at each of concentrations of 10, 50, and 100 μM, and dispensed into the cells. A positive control (PC) was treated with 100 nM of bFGF instead of the above peptide. The cells were cultured in a CO2 incubator at 37° C. for 24 hours.
The cultured cells were washed twice with PBS, and RNA was extracted from the cells using easy blue (iNtRON, Cat. No.: 17061, Korea). The extracted RNA was subjected to RT-PCR using an RNA kit (enzynomics, Cat. No.: P581T, Korea). The sequences of the primers of collagen (Col1a1), fibronectin, and elastin used in RT-PCR and the sequence of the primer of GAPDH used to compare the total RNA amount of each treatment group are shown in [Table 2].

NIH3T3 cells = assay: Collagen ELISA and hyaluronic acid ELISA of culture medium, fibroblasts; assay type: cell-based, mouse; conditions: peptide 50 μM, 100 μM, 72 hours
Description: (§1) First, NIH3T3 cells and HaCaT cells (human keratinocyte cell line) were seeded in a 24-well plate at a cell density of 1×10^4 cell/well, and then the cells were cultured in DMEM medium containing 10% fetal bovine serum (FBS) for 24 hours. The cultured cells were washed once with serum free DMEM medium, and the peptide of the present invention was mixed in 2 mL of the serum free DMEM medium at each of concentrations of 50 μM, 100 μM, and 5 ng/ml, and dispensed into three wells by 500 μL per condition. The NIH3T3 cells were treated with 5 ng/ml of TGF-β1 instead of the above peptide as a positive control (PC). The HaCaT cells were treated with 100 nM of IGF-1 instead of the above peptide as a PC. The cells were cultured in a CO2 incubator at 37° C. for 72 hours.
(§2) The medium of the cultured NIH3T3 and HaCaT cells was centrifuged to settle a suspended matter, a supernatant was transferred to an e-tube, and then each of ELISA (abcam, Cat No.: ab210579, UK) and hyaluronic acid (HA) ELISA (ECHELON biosciences, Cat No.: K-1200, USA) was performed using the same.

[2] = system: HaCaT cells (human keratinocyte cell line); assay: Collagen ELISA and hyaluronic acid ELISA of culture medium, keratinocytes; assay type: cell-based; conditions: peptide 50 μM, 100 μM, 72 hours
Description: as §1, §2

HaCaT cells [3] = assay: RT-PCR expression of skin barrier genes (SIRT1, AQP3) in keratinocytes; assay type: cell-based, human; conditions: peptide 10, 50, 100 μM, 24 hours
Description: (§3) First, HaCaT cells were seeded in a 6-well plate at a cell density of 3×10^5 cell/well, and then the cells were cultured in DMEM medium containing 10% fetal bovine serum (FBS) for 24 hours. The cultured cells were washed once with serum free DMEM medium, and then the peptide of the present invention was mixed in 1 mL of the serum free DMEM medium at each of concentrations of 10, 50, and 100 μM, and dispensed into the cells. A positive control (PC) was treated with 100 nM of EGF instead of the above peptide. The cells were cultured in a CO2 incubator at 37° C. for 24 hours.
The cultured cells were washed twice with PBS, and then RNA was extracted from the cells using easy blue (iNtRON, Cat. No.: 17061, Korea). The extracted RNA was subjected to RT reaction using a kit (enzynomics, Cat. No.: RT200, Korea). Thereafter, RT-PCR was performed using a PCR kit (enzynomics, Cat. No.: R581T, Korea). The sequences of the primers of SIRT1 and AQP3 used in RT-PCR are shown in [Table 3]. The sequence of the primer of GAPDH used to compare the total RNA amount of each treatment group is shown in [Table 2].

HaCaT cells [4] = assay: Intracellular reactive oxygen species after UVB irradiation (DCFH-DA, FACS); assay type: cell-based, human; conditions: peptide 10, 50, 100 μM, 1 hour before 15 J/cm^2 UVB, 24 hours after
Description: The reactive oxygen species level increases when UV is irradiated. Therefore, it was confirmed whether the reactive oxygen species level decreased again and the aging phenomenon caused by oxidative stress in cells was inhibited when treated with the peptide of the present invention.
as §3, with “5×10^5” for “3×10^5”, “25 μM” for “100 nM”, “Trolox” for “EGF”, “peptide.” for “peptide. The cells were cultured in a CO2 incubator at 37° C. for 24 hours.”
The cells were cultured in a CO2 incubator at 37° C. for 1 hour. The medium of the cultured cells was transferred to a tube, 1 ml of PBS was added, and irradiation was performed with 15 J/cm^2 of UVB using a UV irradiator (VILBER LOURMAT, Cat No.: 3102-BSU, France). After removing PBS, 900 μL of the medium transferred to the tube was dispensed, and culture was performed in a CO2 incubator at 37° C. for 24 hours. […] After centrifugation, the cells were washed with PBS, and a fluorescence value was measured through FACS.

HaCaT cells [5] = assay: RT-PCR expression of SIRT1 and AQP3 decreased by UVB irradiation; assay type: cell-based, human; conditions: peptide 10, 50, 100 μM, 15 J/cm^2 UVB, 24 hours
Description: The expression of genes related to the skin barrier strengthening function is inhibited when irradiated with UV.
(§4) First, HaCaT cells were seeded in a 6-well plate at a cell density of 3×10^5 cell/well, and then the cells were cultured in DMEM medium containing 10% fetal bovine serum (FBS) for 24 hours. The cultured cells were washed once with serum free DMEM medium, and then the peptide of the present invention was mixed in 1 mL of the serum free DMEM medium at each of concentrations of 10, 50, and 100 μM, and dispensed into the cells. A positive control (PC) was treated with 2.5 mM of N-acetylcysteine (NaC) instead of the above peptide. The cells were cultured in a CO2 incubator at 37° C. for 1 hour.
The cultured cells were washed twice with PBS, 1 ml of PBS was added, and irradiation was performed with 15 J/cm^2 of UVB using a UV irradiator (VILBER LOURMAT, Cat No.: 3102-BSU, France). After removing PBS, 900 μL of the medium transferred to the tube was dispensed, and culture was performed in a CO2 incubator at 37° C. for 24 hours. The cultured cells were washed twice with PBS, and then RNA was extracted from the cells using easy blue (iNtRON, Cat. No.: 17061, Korea). The extracted RNA was subjected to an RT reaction using an RNA kit (enzynomics, Cat. No.: P581T, Korea). Thereafter, RT-PCR was performed using a PCR kit (enzynomics, Cat. No.: R581T, Korea). […]

HaCaT cells [6] = assay: Western blot of apoptotic-inducing factors (cleaved PARP-1, cleaved Caspase-3) increased by UVB irradiation; assay type: cell-based, human; conditions: peptide 10, 50, 100 μM, 15 J/cm^2 UVB, 24 hours
Description: Expression of the apoptotic-inducing factors increases when irradiated with UV. Therefore, it was confirmed whether the photoaging phenomenon of the cells was inhibited and the damaged cells were regenerated by confirming whether the increased expression levels of the apoptotic-inducing factors such as cleaved PARP-1 and cleaved Caspase-3 decreased again when treated with the peptide of the present invention.
as §4, with “5×10^5” for “3×10^5”, “peptide.” for “peptide. The cells were cultured in a CO2 incubator at 37° C. for 1 hour.”
The cells were cultured in a CO2 incubator at 37° C. for 1 hour, the medium of the cultured cells was transferred to a tube, 1 mL of PBS was added, and then irradiation was performed with 15 J/cm^2 of UVB using a UV irradiator (VILBER LOURMAT, Cat No.: 3102-BSU, France). After removing PBS, 900 μL of the medium transferred to the tube was added again, and culture was performed in a CO2 incubator at 37° C. for 24 hours. […]

EYIPNRVCRR [SEQ ID NO: 1]
expression of the Col1a1 gene [1]: gradually increased as a concentration of the peptide increased
expression of the elastin gene [1]: gradually increased as a concentration of the peptide increased
expression of the fibronectin gene [1]: gradually increased as a concentration of the peptide increased
amount of collagen protein (NIH3T3 cells; ELISA of medium (FIG. 2A)): gradually increased as a concentration of the peptide increased
amount of hyaluronic acid (NIH3T3 cells; HA ELISA of medium (FIG. 2A)): gradually increased as a concentration of the peptide increased
amount of collagen protein ([2]; ELISA of medium (FIG. 2B)): gradually increased as a concentration of the peptide increased
amount of hyaluronic acid ([2]; HA ELISA of medium (FIG. 2B)): gradually increased as a concentration of the peptide increased
mRNA level of AQP3 (HaCaT cells [3]): increased
mRNA level of SIRT1 (HaCaT cells [3]): increased
intracellular reactive oxygen species level increased by UV irradiation (HaCaT cells [4]): decreased
mRNA level of AQP3 decreased by UV irradiation (HaCaT cells [5]): increased again
mRNA level of SIRT1 decreased by UV irradiation (HaCaT cells [5]): increased again
expression of Cleaved Caspase-3 increased by UV irradiation (HaCaT cells [6]): inhibited the expression
expression of Cleaved PARP-1 increased by UV irradiation (HaCaT cells [6]): inhibited the expression
